Values joined by “and” are separate entries in the source; they are usually repeats but may differ in a detail not shown here. Equal values may be shown once.
Columns and labels:
[1] = test system: CT26 (murine colon carcinoma); assay: Cell photosensitization, 748 nm diode laser, resazurin; type: cell-based, mouse; details: for concentration of sensitizer required to kill 90% of cells (LD90): 6 J/cm^2 diode laser irradiation at 28.5 mW
[2] = Fluorescence quantum yield; type: physicochemical; details: ethanol
Description: The absorptions of both reference and sample solutions were matched at ca 0.2 at the excitation wavelength of 515.5 nm, and the solutions were diluted by a factor 10 before collecting the fluorescence. The fluorescence quantum yield was obtained from the ratio of the fluorescence bands of the sample vs the reference, multiplied by the fluorescence quantum yield of the reference, 0.012 according to [12], after correction for the difference of refractive indexes of ethanol and toluene.
This is indicative of little aggregation between the molecules, which exist mostly as monomers at these concentrations in the solvents studied. Table 1 presents typical red and infrared molar absorption coefficients (εmax) and wavelength maxima. The same table also presents representative fluorescence quantum yields (ΦF) of Luzitins. The fluorescence quantum yields decrease of these molecules decrease in the presence of chlorine substituents, a fingerprint of the heavy atom effect expected for such molecules.

[3] = Photobleaching under 748 nm diode laser irradiation; type: physicochemical; details: for t1/2 (photobleaching half-life): 100 mW laser irradiation at 748 nm
Description: The irradiation of bacteriochlorins in the photobleaching experiments employed the 748 nm Lynx diode laser. For animal studies we employed a costumer-made Hamamatsu diode laser, type LA0873. S/N M070301, which delivered 140 mW at 748 nm. This diode laser was controlled by a ThorLabs 500 mA ACC/APC Laser Diode Controller and in-house electronics. The laser energies of this and the other higher-energy lasers employed in this work were regularly checked with an Ophir model AN/2E laser power meter.
Photobleaching experiments were conducted in PBS. PBS:methanol (50:50) and methanol solutions. The solutions were irradiated in a cuvette with an optical path of 1 cm and the Lynx diode laser. The initial absorption of the solutions was ca. 0.8. The mechanism of photobleaching was assessed with the irradiation of the sensitizer using the Hamamatsu diode laser at 80 mW. The sensitizer was irradiated in PBS and in the presence of ascorbic acid or azide.
The chemical stability of the compounds was studied exposing them to light, air, and pH changes. The most significant degradation occurs for aerated solutions irradiated by light of the appropriate wavelength. In such circumstances the photobleaching of the compounds follows a first-order rate and is proportional to the energy of the incident laser light. In general, it was also observed that the photobleaching rate increases with the amount of water present in the solution. Bennett reported the photoconversion of Foscan® (m-THPC) and of the analogous bacteriochlorin (m-THPB) in PBS:methanol (50:50). Scherz reported the photoconversion of Tookad® in acetone and Triton-X:PBS [3]. For the purpose of comparing the photostability of Luzitins with that of Foscan® and Tookad®, we present in Table 2 the half-lives (t1/2) of representative drugs described herein, together with those of Foscan and Tookad® normalized for a laser power of 100 mW.
Luzitin-FMet was dissolved in PBS:methanol (2:3), transferred to a 1 cm quartz cell and its absorption spectrum was registered, FIG. 6. The quartz cell was then placed in the beam of the 748 nm Lynx diode laser, previously unfocused to have a beam diameter coincident with the window of the quartz cell. The laser power measured under these conditions was 28.8 mW. Every 5 minutes the irradiation was interrupted and a new absorption spectrum was registered. This procedure was followed for 65 minutes. The photobleaching follows the kinetics of a first-order reaction in the time window of the experiment. […] Whereas the bacteriochlorin peak at 743 nm is reduced from an absorbance of 1.128 to 0.337, the absorption of the chlorin only increases from 0.114 to 0.151. Taking into consideration the molar absorption coefficients of the compounds at these wavelengths, it is clear that whereas 70% of the bacteriochlorin is destroyed during the irradiation, only a few percent of chlorin are formed.
The half-lives of other bacteriochlorins normalized 100 mW laser irradiation at 748 nm are presented in […], together with the literature data for the photodegradation of Foscan® and Tookad® normalized for the same light intensity. It was also observed that the half-live to Luzitin-Cl is increased by a factor of 30 when the PBS solution of the photosensitizer is saturated with Argon, which reduces the oxygen concentration in the solution.

[4] = Absorption spectra (λmax, molar absorption coefficient); type: physicochemical; details: for λmax / εmax: ethanol solutions
[5] = test system: HT-29 (human adenocarcinoma); assay: Cell photosensitization, 748 nm diode laser, resazurin; type: cell-based; details: for concentration of sensitizer required to kill 90% of cells (LD90): 6 J/cm^2 diode laser irradiation at 28.5 mW
[6] = Singlet oxygen quantum yield and lifetime (1270 nm phosphorescence); type: physicochemical; details: air-saturated ethanol; for ΦΔ (singlet oxygen quantum yield): phenalenone as reference
Description: Absorption spectra were recorded on a Shimadzu UV-2100 spectrophotometer or with a Carry 50 Biospectrophotometer (Varian, Mulgrave, USA). Fluorescence spectra were measured with a Spex Fluorolog 3 spectrophotometer, with correction for the wavelength dependence system (RCA C31034 photomultiplier), or with a PerkinElmer LS 50 spectrofluorimeter. Transient absorption spectra were measured with an Applied Photophysics LKS 60 nanosecond laser flash photolysis kinetic spectrometer, using the third harmonic of a Spectra-Physics Quanta Ray GCR 130-01 Nd/YAG laser for excitation, a Hamamatsu 1P28 photomultiplier and a Hewlett-Packard Infinium oscilloscope (1 GS/s). Flash photolysis measurements were made in the presence of air and in argon saturated solutions. Photoacoustic calorimetry employed the same Nd/YAG laser, a home-made front-face photoacoustic cell with a 2.25 MHz Panametrics transducer (model 5676) and a Tektronix DSA 601 transient recorder. Room-temperature singlet-oxygen phosphorescence was measured at 1270 nm with a Hamamatsu R5509-42 photomultiplier, cooled to 193 K in a liquid nitrogen chamber (Products for Research model PC176TSCE005), following laser excitation of aerated solutions at 355 nm, using an adapted Applied Photophysics spectrometer. Singlet oxygen emission at 1270 nm was also monitored with a liquid nitrogen-cooled germanium detector (North Coast) coupled to a Tectronix Digitizing scope (TDS 520B), following sample excitation with 5 ns laser pulses of the third harmonic (355 nm) generated by a Q-switched Nd:YAG laser (Continuum Surelite II).
Singlet oxygen quantum yields in ethanol were obtained using a procedure described by some of us, using phenalenone as reference. The literature value for the singlet oxygen quantum yield obtained with phenalenone in ethanol is ΦΔ=0.95 [38].
All the singlet oxygen emissions measured in aerated ethanol solutions are very well described by mono-exponential decays, with typical singlet oxygen lifetimes (τΔ). The ΦΔ values of Table 1 were obtained by the procedures described above and are representative of these photosensitisers.
An air-saturated solution of Luzitin-Cl2Hep in ethanol with an absorbance ca. 0.2 at 355 nm was excited in a 1 cm quartz cuvette by a pulsed Nd:YAG laser, and the singlet oxygen emission was followed at 1270 nm, using the equipment and methods previously described. The intensity of the singlet oxygen phosphorescence was studied as a function of the laser intensity. A similar study was made with phenalenone in ethanol, at a concentration matching the absorbance of Luzitin-Cl2Hep at 355 nm. […] Various laser energies were employed and from the slopes of the energy dependence of singlet oxygen emission and the value of ΦΔ=0.95 for phenalenone in this ethanol, we obtained ΦΔ=0.78 for Luzitin-Cl2Hep.

[7] = test system: PC-3 (human prostate carcinoma); assay: Cell photosensitization, 748 nm diode laser, resazurin; type: cell-based; details: for concentration of sensitizer required to kill 90% of cells (LD90): 6 J/cm^2 diode laser irradiation at 28.5 mW
[8] = corrected for the chlorin content

Compound | cell kill ([1]; 10 μM, laser light dose 6 J/cm^2, incubation 18 hours) | ΦF (fluorescence quantum yield) [2] | t1/2 (photobleaching half-life) ([3]; PBS) | λmax [4] | εmax [4, 8] | concentration of sensitizer required to kill 90% of cells (LD90) [5] | τΔ (singlet oxygen lifetime) [6] | ΦΔ (singlet oxygen quantum yield) [6] | cell kill ([7]; 20 μM, laser light dose 6 J/cm^2, incubation 24 hours) | concentration of sensitizer required to kill 90% of cells (LD90) [7] | concentration of sensitizer required to kill 90% of cells (LD90) [1] | t1/2 (photobleaching half-life) ([3]; PBS:methanol) | enhancement of ε at 750 nm band, more polar atropisomer fraction (βα3+α4) [4] | εmax of the more polar atropisomer fraction (βα3+α4) ([4]; at 748 nm (750 nm band), estimated) | εmax [4] | bacteriochlorin destroyed during irradiation ([3]; PBS:methanol (2:3), 748 nm, 28.8 mW, 65 minutes) | t1/2 (photobleaching half-life) ([3]; methanol) | cell kill ([5]; 1 μM, laser light dose 6 J/cm^2, incubation 18 hours)
O=S(=O)(O)c1ccc(Cl)c(-c2c3nc(c(-c4c(Cl)ccc(S(=O)(=O)O)c4Cl)c4ccc([nH]4)c(-c4c(Cl)ccc(S(=O)(=O)O)c4Cl)c4nc(c(-c5c(Cl)ccc(S(=O)(=O)O)c5Cl)c5ccc2[nH]5)CC4)CC3)c1Cl [Luzitin-Cl2, 5,10,15,20-tetrakis(2,6-dichloro-3-sulfonylphenyl)bacteriochlorin] | 100% | 0.0062 | 358 s | 745.0 nm | 27,000^d) M^−1 cm^−1 | 50 µM | 15.4 μsec | 0.85 | 100% | 20 µM | – | – | – | – | – | – | – | –
CCNS(=O)(=O)c1ccc(Cl)c(-c2c3nc(c(-c4c(Cl)ccc(S(=O)(=O)NCC)c4Cl)c4ccc([nH]4)c(-c4c(Cl)ccc(S(=O)(=O)NCC)c4Cl)c4nc(c(-c5c(Cl)ccc(S(=O)(=O)NCC)c5Cl)c5ccc2[nH]5)CC4)CC3)c1Cl [Luzitin-Cl2Et, 5,10,15,20-tetrakis(2,6-dichloro-3-N-ethylsulfamoylphenyl)bacteriochlorin] | – | 0.0081 | – | 745.5 nm | – | 10 µM | 13.7 μsec | 0.66 | – | 5 µM | 5 µM | 4,013 sec | 50% | 150,000 M^−1 cm^−1 | 96,000 M^−1 cm^−1 | – | – | –
O=S(=O)(O)c1ccc(Cl)c(-c2c3nc(c(-c4cc(S(=O)(=O)O)ccc4Cl)c4ccc([nH]4)c(-c4cc(S(=O)(=O)O)ccc4Cl)c4nc(c(-c5cc(S(=O)(=O)O)ccc5Cl)c5ccc2[nH]5)CC4)CC3)c1 [Luzitin-Cl, 5,10,15,20-tetrakis(2-chloro-5-sulfonylphenyl)bacteriochlorin] | – | 0.0403 | 174 s | 746.5 nm | 23,000^d) M^−1 cm^−1 | – | 13.6 μsec | 0.43 | – | – | – | – | – | – | – | – | – | –
CNS(=O)(=O)c1ccc(F)c(-c2c3nc(c(-c4cc(S(=O)(=O)NC)ccc4F)c4ccc([nH]4)c(-c4cc(S(=O)(=O)NC)ccc4F)c4nc(c(-c5cc(S(=O)(=O)NC)ccc5F)c5ccc2[nH]5)CC4)CC3)c1 [Luzitin-FMet, 5,10,15,20-tetrakis(2-fluoro-5-N-methylsulfamoylphenyl)bacteriochlorin] | – | 0.0589 | – | 742.5 nm | 62,000^d) M^−1 cm^−1 | 0.5 µM and 1 µM | 14.1 μsec | 0.71 | – | 0.5 µM | 1.0 µM | 647 s | – | – | – | 70% | 3,553 sec | 100%

— US9670217B2, “Process for preparing chlorins and their pharmaceutical uses” (UNIVERSIDADE DE COIMBRA, priority 2008, dated 2017)
